Data as given in US9199943B2, “2-(poly-substituted aryl)-6-amino-5-halo-4-pyrimidinecarboxylic acids and their use as herbicides” (Dow AgroSciences, LLC., priority 2006, dated 2015).

Legend:
[1] = tested on: CHEAL = lambsquarter (Chenopodium album); experiment: General postemergence herbicidal activity, lambsquarter; assay type: in vivo; conditions: Chenopodium album, post-emergence, 336 h; post-emergent, 140 g ai/ha, visual score after 14 days (0 no injury, 100 complete kill)
Experimental: (§1) Seeds or nutlets of the desired test plant species were planted in Sun Gro MetroMix® 306 planting mixture, which typically has a pH of 6.0 to 6.8 and an organic matter content of about 30 percent, in plastic pots with a surface area of 64 square centimeters. When required to ensure good germination and healthy plants, a fungicide treatment and/or other chemical or physical treatment was applied. The plants were grown for 7-21 days in a greenhouse with an approximate 15 hour photoperiod which was maintained at about 23-29° C. during the day and 22-28° C. during the night. Nutrients and water were added on a regular basis and supplemental lighting was provided with overhead metal halide 1000-Watt lamps as necessary. The plants were employed for testing when they reached the first or second true leaf stage.
(§2) A weighed amount, determined by the highest rate to be tested, of each test compound was placed in a 25 mL glass vial and was dissolved in 4 mL of a 97:3 v/v (volume/volume) mixture of acetone and dimethyl sulfoxide (DMSO) to obtain concentrated stock solutions. […] The concentrated stock solutions obtained were diluted with 20 mL of an aqueous mixture containing acetone, water, isopropyl alcohol, DMSO, Atplus 411F crop oil concentrate, and Triton X-155 surfactant in a 48.5:39:10:1.5:1.0:0.02 v/v ratio to obtain spray solutions containing the highest application rates. Additional application rates were obtained by serial dilution of 12 mL of the high rate solution into a solution containing 2 mL of 97:3 v/v (volume/volume) mixture of acetone and dimethyl sulfoxide (DMSO) and 10 mL of an aqueous mixture containing acetone, water, isopropyl alcohol, DMSO, Atplus 411F crop oil concentrate, and Triton X-155 surfactant in a 48.5:39:10:1.5:1.0:0.02 v/v ratio to obtain ½×, ¼×, ⅛× and 1/16× rates of the high rate. Compound requirements are based upon a 12 mL application volume at a rate of 187 L/ha. Formulated compounds were applied to the plant material with an overhead Mandel track sprayer equipped with a 8002E nozzles calibrated to deliver 187 L/ha over an application area of 0.503 square meters at a spray height of 18 inches (43 cm) above the average plant canopy height. Control plants were sprayed in the same manner with the solvent blank.
(§3) The treated plants and control plants were placed in a greenhouse as described above and watered by sub-irrigation to prevent wash-off of the test compounds. After 14 days, the condition of the test plants as compared with that of the untreated plants was determined visually and scored on a scale of 0 to 100 percent where 0 corresponds to no injury and 100 corresponds to complete kill.
(§4) By applying the well-accepted probit analysis as described by J. Berkson in Journal of the […], 48, 565 (1953) and by D. Finney in “Probit Analysis” Cambridge University Press (1952), the above data can be used to calculate GR50 and GR80 values, which are defined as growth reduction factors that correspond to the effective dose of herbicide required to kill or control 50 percent or 80 percent, respectively, of a target plant.

[2] = tested on: ABUTH = velvetleaf (Abutilon theophrasti); experiment: General postemergence herbicidal activity, velvetleaf; assay type: in vivo; conditions: Abutilon theophrasti, post-emergence, 336 h; post-emergent, 140 g ai/ha, visual score after 14 days (0 no injury, 100 complete kill)
Experimental: as §1, §2, §3, §4

[3] = tested on: HELAN = sunflower (Helainthus annuus); experiment: General postemergence herbicidal activity, sunflower; assay type: in vivo; conditions: post-emergence, 336 h; post-emergent, 140 g ai/ha, visual score after 14 days (0 no injury, 100 complete kill)
Experimental: as §1, §2, §3, §4

Row | melting point [°C] | Compound | pest or weed control at 140 g/ha [1] [%] | pest or weed control at 140 g/ha [2] [%] | pest or weed control at 140 g/ha [3] [%]
1 | 181 to 183 | CN(C)c1c(Cl)ccc(-c2nc(N)c(Cl)c(C(=O)O)n2)c1F [Compound 23, 6-Amino-5-chloro-2-(4-chloro-3-dimethylamino-2-fluorophenyl)pyrimidine-4-carboxylic acid] | 100 | 95 | 95
2 | 166 to 168 | Nc1nc(-c2ccc(Cl)c(C(F)F)c2F)nc(C(=O)O)c1Cl [Compound 24, 6-Amino-5-chloro-2-(4-chloro-3-difluoromethyl-2-fluorophenyl)pyrimidine-4-carboxylic acid] | 95 | 80 | 90
3 | 173 to 175 | COc1c(Cl)ccc(-c2nc(N)c(Br)c(C(=O)O)n2)c1F [Compound 25, 6-Amino-5-bromo-2-(4-chloro-2-fluoro-3-methoxyphenyl)pyrimidine-4-carboxylic acid] | 100 | 95 | 100

Continued, compound first:

Row | Compound | melting point [°C] | pest or weed control at 140 g/ha [1] [%] | pest or weed control at 140 g/ha [2] [%] | pest or weed control at 140 g/ha [3] [%]
4 | COC(=O)c1nc(-c2cc(OC)c(Cl)cc2F)nc(N)c1Cl [Compound 5, 6-Amino-5-chloro-2-(4-chloro-2-fluoro-5-methoxyphenyl)pyrimidine-4-carboxylic acid methyl ester] | – | 100 | 95 | 95
5 | COC(=O)c1nc(-c2ccc(Cl)c(OC)c2F)nc(N)c1F [Compound 12, 6-amino-2-(4-chloro-2-fluoro-3-methoxy-phenyl)-5-fluoro-pyrimidine-4-carboxylic acid methyl ester] | 200 to 202 | 95 | 85 | 100
6 | COC(=O)c1nc(-c2ccc(Cl)c(SC(F)(F)F)c2F)nc(N)c1Cl [Compound 14, 6-amino-5-chloro-2-(4-chloro-2-fluoro-3-trifluoro-methylthiophenyl)pyrimidine-4-carboxylic acid methyl ester] | 167 to 169 | 50 | 80 | 90
7 | Cc1c(F)sc(-c2nc(N)c(Cl)c(C(=O)O)n2)c1Cl [Compound 16, 6-Amino-5-chloro-2-(4-chloro-2-fluoro-3-methylthiophenyl)pyrimidine-4-carboxylic acid] | 139 to 141 | – | – | –
8 | Cc1c(Cl)ccc(-c2nc(N)c(Cl)c(C(=O)O)n2)c1F [Compound 20, 6-Amino-5-chloro-2-(4-chloro-2-fluoro-3-methylphenyl)pyrimidine-4-carboxylic acid] | 210 to 212 | 100 | 90 | 100
9 | Nc1nc(-c2ccc(Cl)c(OCC(F)F)c2F)nc(C(=O)O)c1Cl [Compound 21, 6-Amino-5-chloro-2-[4-chloro-3-(2,2-difluoroethoxy)-2-fluorophenyl]-pyrimidine-4-carboxylic acid] | – | 90 | 0 | 80
10 | Nc1nc(-c2ccc3c(c2F)OCO3)nc(C(=O)O)c1Cl [Compound 22, 6-Amino-5-chloro-2-(4-fluoro-benzo[1,3]-dioxol-5-yl)pyrimidine-4-carboxylic acid] | – | 95 | 80 | 90
